Data: ChEMBL document CHEMBL3763057 (J Med Chem, 2016)
Calls of active or inactive are those of the source. The rule behind the calls is not given here.

What was measured:
[1] = target: Glycogen synthase kinase-3 beta (Homo sapiens, UniProt P49841); assay: Inhibition of human recombinant GSK3-beta using prephosphorylated polypeptide as substrate incubated for 30 mins by Glo-type luminescence assay
[2] = target: Beta-secretase 1 (Homo sapiens, UniProt P56817); assay: Inhibition of human recombinant BACE1 using M-2420 as substrate preincubated for 1 hr followed by substrate addition incubated for 15 mins by FRET assay
[3] = Permeability of the compound by PAMPA-BBB assay; type: ADME; conditions: read-out: permeability
[4] = Cytotoxicity against human T67 cells up to 20 uM after 24 hrs by MTT assay; type: cell-based; conditions: t67, 24 h
[5] = tested on: T67; assay: Neuroprotective effect in human T67 cells assessed as inhibition of TBH-induced ROS formation at 10 uM after 30 mins by DCFH-DA fluorescent probe-based spectrofluorimetric analysis; type: functional, cell-based
[6] = tested on: T67; assay: Neuroprotective effect in human T67 cells assessed as increase in NQO1 activity using DCIP as substrate; type: functional, cell-based
[7] = Cytotoxicity against human T67 cells at 10 uM after 24 hrs by MTT assay; type: cell-based; conditions: t67, 24 h
[8] = Cytotoxicity against human T67 cells at 20 uM after 24 hrs by MTT assay; type: cell-based; conditions: t67, 24 h
[9] = Chemical stability of the compound in phosphate and borate buffer assessed as formation of degradation product at pH 7.4 and 9.2 incubated for 3 days by RP-HPLC analysis; type: physicochemical; conditions: pH 7.4, 72 h
[10] = Chemical stability of the compound in phosphate and borate buffer at pH 7.4 and 9.2 incubated for 3 days by RP-HPLC analysis; type: physicochemical; conditions: pH 7.4, 72 h

Glycogen synthase kinase-3 beta, sequence (P49841 whole entry): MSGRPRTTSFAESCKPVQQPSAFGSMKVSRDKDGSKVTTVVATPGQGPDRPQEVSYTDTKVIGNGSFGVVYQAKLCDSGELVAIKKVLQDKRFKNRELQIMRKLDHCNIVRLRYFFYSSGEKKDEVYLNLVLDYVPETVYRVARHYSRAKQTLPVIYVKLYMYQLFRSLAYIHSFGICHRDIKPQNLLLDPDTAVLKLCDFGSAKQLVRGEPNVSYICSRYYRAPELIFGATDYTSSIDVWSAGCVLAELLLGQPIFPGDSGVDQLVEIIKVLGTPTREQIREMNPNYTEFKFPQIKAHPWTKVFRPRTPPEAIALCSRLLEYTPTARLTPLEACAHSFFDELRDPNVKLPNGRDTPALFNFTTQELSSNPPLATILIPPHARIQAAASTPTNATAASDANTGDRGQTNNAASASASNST
Beta-secretase 1, sequence (P56817 whole entry): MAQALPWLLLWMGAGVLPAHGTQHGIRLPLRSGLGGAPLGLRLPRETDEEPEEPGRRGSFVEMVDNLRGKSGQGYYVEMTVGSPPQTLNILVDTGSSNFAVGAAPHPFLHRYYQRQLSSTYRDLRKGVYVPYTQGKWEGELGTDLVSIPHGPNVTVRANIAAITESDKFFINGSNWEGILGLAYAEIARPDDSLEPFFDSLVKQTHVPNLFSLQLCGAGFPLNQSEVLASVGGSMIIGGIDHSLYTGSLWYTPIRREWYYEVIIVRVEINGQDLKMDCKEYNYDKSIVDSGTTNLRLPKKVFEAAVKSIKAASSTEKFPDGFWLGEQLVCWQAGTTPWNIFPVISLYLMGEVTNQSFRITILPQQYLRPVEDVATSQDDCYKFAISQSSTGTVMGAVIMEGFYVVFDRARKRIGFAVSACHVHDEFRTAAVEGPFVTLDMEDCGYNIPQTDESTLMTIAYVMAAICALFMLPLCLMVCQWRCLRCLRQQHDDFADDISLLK

IC50 [1] [nM] | IC50 [2] [nM] | Papp [3] [×10⁻⁶ cm/s] | Stability [9] | Stability [10] | SMILES | Activity [4] | Activity [5] | Activity [6] | Activity [7] | Activity [8]
9060 | 1000 | – | – | – | O=C(/C=C/c1ccc(OCc2ccc(F)cc2F)cc1)CC(=O)/C=C/c1ccc(OCc2ccc(F)cc2F)cc1 | – | – | – | – | –
2490 | 40 | 3.6 | – | – | O=C(/C=C(O)/C=C/c1ccc(OCc2ccccc2)cc1)/C=C/c1ccc(OCc2ccccc2)cc1 | Non-toxic | Active | Active | – | –
900 | 970 | 7.7 | – | – | COc1cc(/C=C/C(O)=C/C(=O)/C=C/c2ccc(OCc3ccccc3)cc2)ccc1O | Non-toxic | Active | Active | – | –
9630 | 400 | – | – | – | O=C(/C=C(O)/C=C/c1ccc(OCc2ccc(F)cc2F)cc1)/C=C/c1ccc(OCc2ccc(F)cc2F)cc1 | – | – | – | – | –
8390 | – | 7.8 | – | – | O=C(/C=C(O)/C=C/c1ccc(O)cc1)/C=C/c1ccc(O)cc1 | – | inactive | Active | Non-toxic | Toxic
17000 | 1080 | – | – | – | O=C(/C=C(O)/C=C/c1ccc(OCc2cccc(F)c2)cc1)/C=C/c1ccc(OCc2cccc(F)c2)cc1 | – | – | – | – | –
2010 | 2690 | – | – | – | O=C(/C=C(O)/C=C/c1ccc(OCc2ccccc2)cc1)/C=C/c1ccc(O)cc1 | Toxic | inactive | Active | – | –
17900 | – | 2.5 | – | – | COc1cc(/C=C/C(=O)CC(=O)/C=C/c2ccc(O)c(OC)c2)ccc1O [CURCUMIN] | Non-toxic | – | Active | – | –
15300 | > 5000 | – | Unstable | – | COc1ccc(/C=C/C(=O)CC(=O)/C=C/c2ccc(OC)cc2)cc1 | – | – | – | – | –
2780 | 2280 | 7 | – | – | COc1ccc(/C=C/C(=O)/C=C(O)/C=C/c2ccc(OCc3ccccc3)cc2)cc1 | Non-toxic | inactive | Active | Non-toxic | –
2090 | 140 | 8.2 | – | – | COc1cc(/C=C/C(O)=C/C(=O)/C=C/c2ccc(C)cc2)ccc1O | Non-toxic | inactive | Active | – | –
5560 | 6040 | – | – | – | O=C(/C=C/c1ccc(OCc2ccccc2)cc1)CC(=O)/C=C/c1ccc(OCc2ccccc2)cc1 | – | – | – | – | –
8300 | 390 | – | – | – | O=C(/C=C(O)/C=C/c1ccc(OCc2cc(F)cc(F)c2)cc1)/C=C/c1ccc(OCc2cc(F)cc(F)c2)cc1 | – | – | – | – | –
530 | 1650 | 2.8 | – | Stable | COc1ccc(/C=C/C(=O)/C=C(O)/C=C/c2ccc(OC)cc2)cc1 | – | inactive | Active | Non-toxic | –
9660 | 730 | – | – | – | O=C(/C=C/c1ccc(OCc2cc(F)cc(F)c2)cc1)CC(=O)/C=C/c1ccc(OCc2cc(F)cc(F)c2)cc1 | – | – | – | – | –
12800 | 1040 | – | – | – | O=C(/C=C(O)/C=C/c1ccc(OCc2ccc(F)cc2)cc1)/C=C/c1ccc(OCc2ccc(F)cc2)cc1 | – | – | – | – | –
